Measurements reported in ChEMBL document CHEMBL1681651, “A broad spectrum anticancer nucleoside with selective toxicity against human colon cells in vitro” (2011).

What was measured:
Assay type in all cases: functional
[1] = test system: SF-295; test: Growth inhibition of human SF295 cells assessed as cell growth at 1 mM after 48 hrs by SRB assay; conditions: SF-295, 48 h, read-out: Activity
[2] = test system: NCI-H226; test: Growth inhibition of human NCI-H226 cells assessed as cell growth at 1 mM after 48 hrs by SRB assay; conditions: NCI-H226, 48 h, read-out: Activity
[3] = test system: DU-145; test: Growth inhibition of human DU145 cells after 48 hrs by […] growth inhibition assay; conditions: DU-145, 48 h
[4] = test system: TK-10; test: Growth inhibition of human TK10 cells assessed as cell growth at 1 uM after 48 hrs by SRB assay; conditions: TK-10, 48 h, read-out: Activity
[5] = test system: KM12; test: Growth inhibition of human KM12 cells assessed as cell growth at 100 uM after 48 hrs by SRB assay; conditions: KM12, 48 h, read-out: Activity
[6] = test system: NCI-H522; test: Growth inhibition of human NCI-H522 cells assessed as cell growth at 100 uM after 48 hrs by SRB assay; conditions: NCI-H522, 48 h, read-out: Activity
[7] = test system: TK-10; test: Growth inhibition of human TK10 cells after 48 hrs by […] growth inhibition assay; conditions: TK-10, 48 h
[8] = test system: SF-539; test: Growth inhibition of human SF539 cells assessed as cell growth at 1 uM after 48 hrs by SRB assay; conditions: SF-539, 48 h, read-out: Activity
[9] = test system: PC-3; test: Growth inhibition of human PC3 cells assessed as cell growth at 10 uM after 48 hrs by SRB assay; conditions: PC-3, 48 h, read-out: Activity
[10] = test system: NCI-H322M; test: Growth inhibition of human NCI-H322M cells assessed as cell growth at 10 uM after 48 hrs by SRB assay; conditions: read-out: Activity
[11] = test system: OVCAR-4; test: Growth inhibition of human OVCAR4 cells after 48 hrs by […] growth inhibition assay; conditions: OVCAR-4, 48 h
[12] = test system: SK-MEL-5; test: Growth inhibition of human SK-MEL-5 cells assessed as cell growth at 10 uM after 48 hrs by SRB assay; conditions: SK-MEL-5, 48 h, read-out: Activity
[13] = test system: NCI-H322M; test: Growth inhibition of human NCI-H322M cells after 48 hrs by […] growth inhibition assay
[14] = test system: LOX IMVI; test: Growth inhibition of human LOXIMVI cells assessed as cell growth at 1 mM after 48 hrs by SRB assay; conditions: read-out: Activity
[15] = test system: CCRF-CEM; test: Growth inhibition of human CCRF-CEM cells assessed as cell growth at 10 uM after 48 hrs by SRB assay; conditions: read-out: Activity
[16] = test system: OVCAR-3; test: Growth inhibition of human OVCAR3 cells after 48 hrs by […] growth inhibition assay; conditions: OVCAR-3, 48 h
[17] = test system: SF-295; test: Growth inhibition of human SF295 cells assessed as cell growth at 0.1 uM after 48 hrs by SRB assay; conditions: SF-295, 48 h, read-out: Activity
[18] = test system: SK-MEL-5; test: Growth inhibition of human SK-MEL-5 cells after 48 hrs by […] growth inhibition assay; conditions: SK-MEL-5, 48 h
[19] = test system: HOP-62; test: Growth inhibition of human HOP62 cells assessed as cell growth at 1 mM after 48 hrs by SRB assay; conditions: HOP-62, 48 h, read-out: Activity
[20] = test system: NCI-H322M; test: Growth inhibition of human NCI-H322M cells assessed as cell growth at 1 uM after 48 hrs by SRB assay; conditions: read-out: Activity
[21] = test system: OVCAR-3; test: Growth inhibition of human OVCAR3 cells assessed as cell growth at 100 uM after 48 hrs by SRB assay; conditions: OVCAR-3, 48 h, read-out: Activity
[22] = test system: HOP-92; test: Growth inhibition of human HOP92 cells assessed as cell growth at 10 uM after 48 hrs by SRB assay; conditions: HOP-92, 48 h, read-out: Activity
[23] = test system: OVCAR-5; test: Growth inhibition of human OVCAR5 cells assessed as cell growth at 100 uM after 48 hrs by SRB assay; conditions: OVCAR-5, 48 h, read-out: Activity
[24] = test system: ACHN; test: Growth inhibition of human ACHN cells assessed as cell growth at 1 uM after 48 hrs by SRB assay; conditions: read-out: Activity
[25] = test system: HCT-116; test: Growth inhibition of human HCT116 cells after 48 hrs by […] growth inhibition assay; conditions: HCT-116, 48 h
[26] = test system: SN12C; test: Growth inhibition of human SN12C cells assessed as cell growth at 1 uM after 48 hrs by SRB assay; conditions: read-out: Activity
[27] = test system: SK-MEL-5; test: Growth inhibition of human SK-MEL-5 cells assessed as cell growth at 1 uM after 48 hrs by SRB assay; conditions: SK-MEL-5, 48 h, read-out: Activity
[28] = test system: Malme-3M; test: Growth inhibition of human MALME-3M cells assessed as cell growth at 10 uM after 48 hrs by SRB assay; conditions: read-out: Activity
[29] = test system: 786-0; test: Growth inhibition of human 786-0 cells after 48 hrs by […] growth inhibition assay; conditions: 786-0, 48 h
[30] = test system: NCI-H522; test: Growth inhibition of human NCI-H522 cells after 48 hrs by […] growth inhibition assay; conditions: NCI-H522, 48 h
[31] = test system: SW-620; test: Growth inhibition of human SW620 cells assessed as cell growth at 10 uM after 48 hrs by SRB assay; conditions: SW-620, 48 h, read-out: Activity
[32] = read-out: LC50 (the source's name)
[33] = read-out: pLC50 (the source's name) (converted)

Question: With CNC(=O)NC[C@H]1O[C@@H](n2cnc3c(NC(=O)Nc4ccccc4)ncnc32)[C@H](O[Si](C)(C)C(C)(C)C)[C@@H]1O[Si](C)(C)C(C)(C)C as the compound, how does the growth at 1000 µM [1] read?
Answer: -7%

Question: And the growth at 1000 µM [2]?
Answer: -48%

Question: And the GI50 ([3]; read-out: GI50)?
Answer: 2.58 µM

Question: What about the CC50 [3, 32] of the same compound?
Answer: 18.7 µM

Question: And the TGI ([3]; read-out: TGI)?
Answer: 5.71 µM

Question: What about the GI50 ([3]; read-out: pGI50 (converted)) of the same compound?
Answer: 2.57 µM

Question: And the CC50 [3, 33]?
Answer: 18.6 µM

Question: What about the TGI ([3]; read-out: pTGI (converted)) of the same compound?
Answer: 5.75 µM

Question: What about the growth at 1 µM [4] of the same compound?
Answer: 113%

Question: What about the growth at 100 µM [5] of the same compound?
Answer: -66%

Question: What about the growth at 100 µM [6] of the same compound?
Answer: -15%

Question: What about the GI50 ([7]; read-out: GI50) of the same compound?
Answer: 4.29 µM

Question: And the CC50 [7, 32]?
Answer: > 100 µM

Question: And the TGI ([7]; read-out: TGI)?
Answer: 72.6 µM

Question: What about the GI50 ([7]; read-out: pGI50 (converted)) of the same compound?
Answer: 4.27 µM

Question: What about the CC50 [7, 33] of the same compound?
Answer: > 100 µM

Question: What about the TGI ([7]; read-out: pTGI (converted)) of the same compound?
Answer: 72.4 µM

Question: What about the growth at 1 µM [8] of the same compound?
Answer: 100%

Question: And the growth at 10 µM [9]?
Answer: 83%

Question: And the growth at 10 µM [10]?
Answer: 105%

Question: What about the GI50 ([11]; read-out: GI50) of the same compound?
Answer: 3.44 µM

Question: What about the CC50 [11, 32] of the same compound?
Answer: > 100 µM

Question: And the TGI ([11]; read-out: TGI)?
Answer: 43.9 µM

Question: What about the GI50 ([11]; read-out: pGI50 (converted)) of the same compound?
Answer: 3.47 µM

Question: What about the CC50 [11, 33] of the same compound?
Answer: > 100 µM

Question: What about the TGI ([11]; read-out: pTGI) of the same compound?
Answer: 43.7 µM

Question: What about the growth at 10 µM [12] of the same compound?
Answer: 89%

Question: What about the GI50 ([13]; read-out: GI50) of the same compound?
Answer: 6.86 µM

Question: And the CC50 [13, 32]?
Answer: > 100 µM

Question: And the TGI ([13]; read-out: TGI)?
Answer: > 100 µM

Question: What about the GI50 ([13]; read-out: pGI50 (converted)) of the same compound?
Answer: 6.92 µM

Question: And the CC50 [13, 33]?
Answer: > 100 µM

Question: What about the TGI ([13]; read-out: pTGI) of the same compound?
Answer: > 100 µM

Question: And the growth at 1000 µM [14]?
Answer: -77%

Question: And the growth at 10 µM [15]?
Answer: 101%

Question: What about the GI50 ([16]; read-out: GI50) of the same compound?
Answer: 2.6 µM

Question: What about the CC50 [16, 32] of the same compound?
Answer: 98.2 µM

Question: And the TGI ([16]; read-out: TGI)?
Answer: 5.54 µM

Question: What about the GI50 ([16]; read-out: pGI50 (converted)) of the same compound?
Answer: 2.63 µM

Question: And the CC50 [16, 33]?
Answer: 97.7 µM

Question: What about the TGI ([16]; read-out: pTGI (converted)) of the same compound?
Answer: 5.5 µM

Question: What about the growth at 0.1 µM [17] of the same compound?
Answer: 103%

Question: And the GI50 ([18]; read-out: GI50)?
Answer: 1.98 µM

Question: What about the CC50 [18, 32] of the same compound?
Answer: 13.6 µM

Question: And the TGI ([18]; read-out: TGI)?
Answer: 4.75 µM

Question: What about the GI50 ([18]; read-out: pGI50 (converted)) of the same compound?
Answer: 2 µM

Question: What about the CC50 [18, 33] of the same compound?
Answer: 13.5 µM

Question: What about the TGI ([18]; read-out: pTGI (converted)) of the same compound?
Answer: 4.79 µM

Question: And the growth at 1000 µM [19]?
Answer: -86%

Question: And the growth at 1 µM [20]?
Answer: 106%

Question: What about the growth at 100 µM [21] of the same compound?
Answer: -39%

Question: What about the growth at 10 µM [22] of the same compound?
Answer: 69%

Question: And the growth at 100 µM [23]?
Answer: 29%

Question: What about the growth at 1 µM [24] of the same compound?
Answer: 108%

Question: What about the GI50 ([25]; read-out: GI50) of the same compound?
Answer: 2.11 µM

Question: What about the CC50 [25, 32] of the same compound?
Answer: 8.8 µM

Question: What about the TGI ([25]; read-out: TGI) of the same compound?
Answer: 4.31 µM

Question: And the GI50 ([25]; read-out: pGI50 (converted))?
Answer: 2.09 µM

Question: And the CC50 [25, 33]?
Answer: 8.71 µM

Question: And the TGI ([25]; read-out: pTGI (converted))?
Answer: 4.27 µM

Question: What about the growth at 1 µM [26] of the same compound?
Answer: 100%

Question: What about the growth at 1 µM [27] of the same compound?
Answer: 98%

Question: What about the growth at 10 µM [28] of the same compound?
Answer: 96%

Question: What about the GI50 ([29]; read-out: GI50) of the same compound?
Answer: 2.04 µM

Question: What about the CC50 [29, 32] of the same compound?
Answer: 6.75 µM

Question: And the TGI ([29]; read-out: TGI)?
Answer: 3.71 µM

Question: What about the GI50 ([29]; read-out: pGI50 (converted)) of the same compound?
Answer: 2.04 µM

Question: What about the CC50 [29, 33] of the same compound?
Answer: 6.76 µM

Question: What about the TGI ([29]; read-out: pTGI (converted)) of the same compound?
Answer: 3.72 µM

Question: What about the GI50 ([30]; read-out: GI50) of the same compound?
Answer: 2.39 µM

Question: And the CC50 [30, 32]?
Answer: > 100 µM

Question: What about the TGI ([30]; read-out: TGI) of the same compound?
Answer: 7.14 µM

Question: And the GI50 ([30]; read-out: pGI50 (converted))?
Answer: 2.4 µM

Question: What about the CC50 [30, 33] of the same compound?
Answer: > 100 µM

Question: What about the TGI ([30]; read-out: pTGI (converted)) of the same compound?
Answer: 7.08 µM

Question: Which results are given for CNC(=O)OC[C@H]1O[C@@H](n2cnc3c(NC(=O)Nc4ccccc4)ncnc32)[C@H](O[Si](C)(C)C(C)(C)C)[C@@H]1O[Si](C)(C)C(C)(C)C?
Answer: growth at 10 µM [9]: 58.9%; growth at 10 µM [10]: 118%; growth at 10 µM [12]: 101%; growth at 10 µM [22]: 54.7%; growth at 10 µM [31]: 98%; growth at 10 µM [28]: 114%
